Values quoted from earlier work, collected in patent US20230330298A1 (priority 2022, published 2023).

Key:
[1] = system: Clostridium botulinum spores

| SMILES | Sporicidal Minimal Inhibitory Concentration [1] [mM] | Sporostatic Minimal Inhibitory Concentration [1] [mM] | Sporicidal effect (in words) (bacterial spores) |
| --- | --- | --- | --- |
| O=Cc1ccccc1 [Benzaldehyde] | 625 | 0.6 | – |
| O=CC=Cc1ccccc1 [Cinnamaldehyde] | >2500 | 9.8 | – |
| CCCCCCCCCCCC(=O)OCC(O)CO (stereo not shown) [Monolaurin] | – | – | kill bacterial spores |
| O=Cc1ccc2c(c1)OCO2 [Piperonal] | >2500 | 0.6 | – |
| COc1cc(C=O)ccc1O [Vanillin] | 125 | 0.6 | – |
| CCCCCCCCCCCCCCCCCC(=O)OCC(O)CO (stereo not shown) [glycerol monostearate] | – | – | kill bacterial spores |
